{
  "source": "patent US12685781B2",
  "about": "“Anti-HER3 antibody-drug conjugate” (DAIICHI SANKYO COMPANY, LIMITED, priority 2014, dated 2026)",
  "key": {"[1]": {"experiment": "Stability of released drug derivative", "assay_type": "physicochemical", "settings": "self-degradation to release HO—CH2—C(═O)—(NH-DX)", "description": "Meanwhile, in case of NH2—CH2—O—CH2—C(═O)—(NH-DX), it was confirmed that, as the aminal structure in the molecule is unstable, it again undergoes a self-degradation to release the following HO—CH2—C(═O)—(NH-DX). Those compounds can be also preferably used as a production intermediate of the antibody-drug conjugate of the present invention."}, "[2]": {"biological_target": "T1, topoisomerase I (Homo sapiens, UniProt P11387)", "T1 sequence (P11387 1-765)": "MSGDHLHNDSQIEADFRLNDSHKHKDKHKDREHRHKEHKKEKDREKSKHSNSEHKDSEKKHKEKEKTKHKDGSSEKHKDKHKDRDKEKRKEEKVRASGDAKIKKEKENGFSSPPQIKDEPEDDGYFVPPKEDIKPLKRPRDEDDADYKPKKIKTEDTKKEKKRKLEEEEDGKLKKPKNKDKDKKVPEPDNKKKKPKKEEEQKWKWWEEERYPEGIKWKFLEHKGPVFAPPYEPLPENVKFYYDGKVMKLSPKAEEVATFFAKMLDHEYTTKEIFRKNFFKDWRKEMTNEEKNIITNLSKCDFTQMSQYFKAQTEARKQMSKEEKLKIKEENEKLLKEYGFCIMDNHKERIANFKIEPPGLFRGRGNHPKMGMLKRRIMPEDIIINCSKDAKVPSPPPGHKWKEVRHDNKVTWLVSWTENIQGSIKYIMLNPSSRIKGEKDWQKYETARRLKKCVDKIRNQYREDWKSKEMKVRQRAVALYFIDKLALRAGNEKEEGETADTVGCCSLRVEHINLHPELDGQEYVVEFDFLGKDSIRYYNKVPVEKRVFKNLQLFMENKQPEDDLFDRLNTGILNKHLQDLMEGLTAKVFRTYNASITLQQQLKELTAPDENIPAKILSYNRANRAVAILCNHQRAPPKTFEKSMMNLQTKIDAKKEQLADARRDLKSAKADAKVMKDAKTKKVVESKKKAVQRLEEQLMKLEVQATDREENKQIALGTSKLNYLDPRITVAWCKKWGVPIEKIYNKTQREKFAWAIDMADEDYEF", "settings": "cited from earlier work"}, "[3]": {"system": "various cancer cells", "settings": "cited from earlier work"}, "[4]": {"system": "human tumor", "settings": "human tumor subcutaneously transplanted; cited from earlier work"}},
  "data": [
    {"molecule": "CC[C@@]1(O)C(=O)OCc2c1cc1n(c2=O)Cc2c-1nc1cc(F)c(C)c3c1c2[C@@H](NC(=O)COCN)CC3", "note": "[NH2—CH2—O—CH2—C(═O)—(NH-DX)]", "values": [
      {"measurement": "stability of the aminal structure in the molecule", "setting": "[1]", "value": "unstable"}
    ]},
    {"molecule": "CC[C@@]1(O)C(=O)OCc2c1cc1n(c2=O)Cc2c-1nc1cc(F)c(C)c3c1c2[C@@H](N)CC3", "note": "[exatecan, (1S,9S)-1-amino-9-ethyl-5-fluoro-2,3-dihydro-9-hydroxy-4-methyl-1H,12H-benzo[de]pyrano[3′,4′:6,7]indolizino[1,2-b]quinolin-10,13(9H,15H)-dione]", "values": [
      {"measurement": "inhibitory activity on topoisomerase I compared to SN-38 and topotecan", "setting": "[2]", "value": "higher inhibitory activity"},
      {"measurement": "cytocidal activity in vitro compared to SN-38 and topotecan", "setting": "[3]", "value": "higher cytocidal activity"},
      {"measurement": "antitumor effect", "setting": "[4]", "value": "potent antitumor effect"}
    ]}
  ]
}
